Reference: patent US20260027239A1, “cRGD -CONJUGATED IMAGING AGENT” (Curadel Surgical Innovations, Inc., priority 2022, published 2026)

Legend:
[1] = Stability in warm buffered fetal bovine serum (normalized absorbance and absorbance spectra over time); type: in vitro ADME; conditions: 37° C. buffered FBS
Method: The normalized absorbance of ZW800-1 and ZW700-1c in 37° C. buffered FBS, pH 7.4 over time from 0 to 60 hours are shown in FIGS. 2-4.

[2] = Stability of cRGD in serum; type: in vitro ADME

| SMILES | stability, changes in absorption spectra during metabolism in warm serum ([1]; pH 7.4, 0 to 48 hours, compared to ZW800-1 (FIGS. 5-6)) | stability, normalized absorbance over time ([1]; pH 7.4, 0 to 60 hours, compared to ZW800-1 (FIGS. 2-4)) | stability in serum [2] |
| --- | --- | --- | --- |
| CC1(C)C(/C=C/C(=C/C=C2/N(CCC[N+](C)(C)C)c3ccc(S(=O)(=O)[O-])cc3C2(C)C)c2ccc(CCC(=O)[O-])cc2)=[N+](CCC[N+](C)(C)C)c2ccc(S(=O)(=O)[O-])cc21 [ZW700-1c] | high stability | extreme stability | – |
| N=C(N)NCC[C@@H]1NC(=O)[C@H](CCCCN)NC(=O)[C@@H](Cc2ccc(O)cc2)NC(=O)[C@H](C(=O)O)NC(=O)CNC1=O [cRGD] | – | – | stable in serum for days |
